Results on three molecules are retold here after patent US20230416786A1, “USE OF AMINOQUINOLINE COMPOUNDS FOR HIGHER GENE INTEGRATION” (CELLECTIS SA, priority 2020, published 2023).

Where a name gives a salt, the structure may show the parent alone. Read-outs that look alike come from different tables or passages of the source.

One data set has as its system HSCs. In words: Targeted integration of HLA-E repair template at the B2M locus in HSCs (B2M TALEN + AAV-HLA-E, flow cytometry of HLA-E positive cells). It counts as cell-based, human. An excerpt: (§1) The targeted sequences are […]gctcgcgctactc[…]
For HSCs, AAV-HLA-E particles was thawed on ice and aliquot to transduce each of the HSC samples at 10^4 viral genome per cell (vg/cell).

The subject of another data set is primary T-cells. The following applies: Example 3, FIG. 3, TRAC TALEN + AAV-CAR-MESO, without chloroquine 29%.
From the text: as §1

On to `CCN(CCO)CCCC(C)Nc1ccnc2cc(Cl)ccc12` (centres unmarked) [hydroxychloroquine, 7-Chloro-4-[4-(N-ethyl-N-b-hydroxyethylamino)-1-methylbutylamino]quinoline sulfate], for which the “percentage of HLA-E positive cells” value in the data set with HSCs (Example 5, FIG. 5, B2M TALEN + AAV-HLA-E, compound 0.02 mM, without any compound 33.3%) is 43.4%.

Turning to “i53: mRNAs encoding i53 (SEQ ID NO. 40), a 53BP1 inhibitor, co-electroporated with B2M TALEN”, in the data set with HSCs (Example 6, FIGS. 6B and 6D, B2M TALEN + 4 μg/million cells mRNAs encoding i53 + AAV-HLA-E, without chloroquine, control 31.5%), the “percentage of HLA-E positive cells” value is reported as 39.9%.

For `CCN(CC)CCCC(C)Nc1ccnc2cc(Cl)ccc12` (centres unmarked) [chloroquine, N4-(7-chloroquinolin-4-yl)-N1,N1-diethylpentane-1,4-diamine diphosphate], the “HLA-E expression (reflects targeted integration at the B2M locus)” value in the data set on HSCs (Example 2, FIG. 2, B2M TALEN with HLA-E repair matrix, chloroquine 0.1 mM, without chloroquine 23.4%) was roughly 38%. Also, in the data set with HSCs (Example 4, FIG. 4, B2M TALEN + AAV-HLA-E), the “optimum CQ dose for HLA-E positive cells” value is 0.02 nM. Besides, the “percentage of HLA-E positive cells” value stood at 63.6% with HSCs (Example 6, FIG. 6E, B2M TALEN + i53 mRNAs (inhibition of 53BP1) + AAV-HLA-E combined with chloroquine 0.02 mM, control 31.5%); 53.4% in the data set on HSCs (Example 6, FIGS. 6B and 6C, B2M TALEN + AAV-HLA-E, without 53BP1 inhibition, chloroquine 0.02 mM, without any compound 31.5%). The “CAR positive cells (nuclease-induced targeted integration at TRAC locus)” value in the data set on primary T-cells (chloroquine 0.05 mM) was 35%; in the data set with primary T-cells (second chloroquine concentration (0.1 mM per first sentence)), 33.8%.
